Common to all, as to type: in vivo
The test system of test [1] is COX-2. Description: UV-induced COX-2 expression in mouse skin tissue, Western blotting. As to conditions: hairless mouse; 200 μL of 1 mM topically; 4 times of UV irradiation. As to the method: In order to confirm the in vitro experiment result performed on the human keratinocyte HaCaT cells in an animal model, experiment was carried out as follows using hairless mouse (SKH-1). Test groups were as follows: non-treated group—treated with acetone only without UV irradiation; test group A—treated with 200 μL of 1 mM capsiate dissolved in acetone every 24 hours without UV irradiation; control group—treated with UV and acetone; test group B—treated with UV and 200 μL of 1 mM capsiate dissolved in acetone every 24 hours (Unspecified conditions are the same as in Examples 5-7.).
Capsiate was applied on the back of the mouse. 1 hour later, UV was irradiated at an intensity of 2.5 kJ/m^2. 1 hour later, capsiate was applied again at the same concentration in order to prevent rash which may occur immediately after UV irradiation. Thereafter, capsiate was applied every 24 hours and UV irradiation was carried out every other day at an intensity of 2.5 kJ/m^2 for 4 times. In order to investigate the change of tissue and intracellular mechanism (signaling), the mouse was euthanized 1 hour after the final UV irradiation. Skin tissue was taken from the back of the mouse and subjected to skin biopsy following observation.
In the foregoing, it was confirmed that capsiate suppress inflammatory response, angiogenesis, edema, etc. caused by the UV-induced skin damage. […]
(Immunoblotting shows a protein as a band on a membrane.)

Test [2] relates to TNF-α. Description: UV-induced TNF-α mRNA in hairless mouse skin, RT-PCR. As to conditions: 200 μL of 1 mM topically 1 hour before UV 5 kJ/m^2 once, 6 hours later. As to the method: In order to investigate the effect of capsiate on the production of IL-6 and TNF-α induced in skin tissue during inflammatory response, the inhibition ability of capsiate against the expression of the pro-inflammatory cytokines was evaluated in animal model as follows. Test groups were as follows: non-treated group—treated with acetone only without UV irradiation; test group A—treated with 200 μL of 1 mM capsiate dissolved in acetone without UV irradiation; UV group—treated with acetone and UV; test group B—treated with 200 μL of 1 mM capsiate dissolved in acetone followed by UV irradiation 1 hour later.
To this end, acetone and capsiate were treated prior to UV irradiation. After treating with UV once at an intensity of 5 kJ/m^2, hairless mouse was euthanized 6 hours later. mRNA was extracted from the mouse tissue obtained by skin biopsy and RT-PCR was carried out as follows. For RNA extraction from the tissue, each mouse tissue obtained by skin biopsy was quickly frozen in liquid nitrogen and ground finely using a mortar. RNA was extracted from the mouse tissue using Trizol (Invitrogen, USA), and PCR (PTC-225 Peltier thermal cycler, MJ Research, USA) was carried out using it as template and using a commercial kit (reverse transcription system, Qiagen, USA). As a result, cDNA was prepared from each group. […]

For test [3], the system named is Ki67. As to the kind of experiment: Ki67 expression in mouse skin, immunohistochemical staining. Conditions: mouse skin tissue of Example 5. The protocol: In order to investigate the effect of capsiate on various intracellular angiogenesis-related expression factors, the inhibition effect of capsiate on angiogenesis factors induced by UV was evaluated using the mouse tissue of Example 5.
Mouse skin tissue obtained by skin biopsy was immersed in OCT compound (Sakura Finetechnical Co. Ltd, Japan) and slowly frozen in liquid nitrogen. Thus prepared tissue was sliced with a thickness of 7 μm and fixed on a slide using acetone. The tissue was washed with distilled water and PBS and, after blocking for 1 hour using 10% normal goat serum, incubated at 4° C. for at least 16 hours using ki67 antibody (1:100, Neomarker, USA). After washing 3 times with PBS, the tissue was treated with Alexa 488-conjugated secondary antibody (Invitrogen, USA) for 30 minutes and then washed 3 times. The tissue was mounted and observed under a fluorescence microscope (Carl Zeiss, USA).

In test [4] the test system is MMP-9. Description: MMP-9 mRNA in mouse skin, RT-PCR. As to conditions: mouse tissue of Example 5; normalized using GAPDH. The protocol: mRNA was extracted from the mouse tissue of each test group of Example 5 and the level of expression thereof was evaluated in order to investigate the effect of capsiate on the expression of MMP-2 and MMP-9 induced by angiogenesis and immune response.
For RNA extraction from the tissue, each mouse tissue was subjected to skin biopsy, quickly frozen in liquid nitrogen and finely ground using a mortar. RNA was extracted from the mouse tissue using Trizol (Invitrogen, USA). PCR (PTC-225 Peltier thermal cycler, MJ Research, USA) was carried out using the RNA as template and using a commercial kit (reverse transcription system, Qiagen, USA). As a result, cDNA for each test group was prepared.
RT-PCR (Rotor Gene 6 series, Corbett Research, Australia) was carried out using thus prepared cDNA as template and using MMP-2 and MMP-9 primers (Qiagen, USA). The level of mRNA expression for MMP was normalized using GAPDH. The level of expression was compared with that of the non-treated group, which was treated with acetone only.

Here are results for one molecule from patent publication US9572786B2, “Use of capsiate or dihydrocapsidate” (Catholic University Industry Academy Cooperation Foundation, priority 2007, dated 2017).

As to `COc1cc(COC(=O)CCCC/C=C/C(C)C)ccc1O` [capsiate], the “expression of COX-2 induced in mouse skin tissue (Western blotting)” value in test [1] is “remarkably decreased”. For the same molecule, the “UV-induced expression of TNF-α (mRNA) in skin tissue” value in test [2] is “decrease”. Moreover, the “expression of Ki67 increased by UV” value in test [3] is “significantly inhibited”. The “expression of MMP-9 (mRNA) in mouse skin tissue” value in test [4] is reported as “decreased”.
